pIC50: −log10 of the molar value.
Tests used:
U-87 MG = assay: In vitro inhibitory concentration against growth of U87MG glioblastoma cell line in clonogenic survival assay after 24 hr; format: functional, cell-based, Homo sapiens, U-87MG ATCC
[1] = In vitro inhibitory concentration against growth of SNB19 glioblastoma cell line in clonogenic survival assay after 24 hr; format: functional, cell-based, Homo sapiens
[2] = Homo sapiens, Glioblastoma, 24 h

Molecule | pIC50 (U-87 MG; Homo sapiens, U-87 MG, 24 h) | pIC50 [1, 2] | pIC50 (U-87 MG; u-87mg atcc) | pIC50 ([1]; glioblastoma)
CNC(=S)N(C)CCNc1c2ccccc2nc2ccccc12 | 5.74 | 5.61 | – | –
O=NN(CCCl)C(=O)NCCCl [CARMUSTINE] | 5.85 | 5.63 | – | –
CISPLATIN | – | – | 6.31 | 6.09

Source: ChEMBL document CHEMBL1144255, “A non-crosslinking platinum-acridine hybrid agent shows enhanced cytotoxicity compared to clinical BCNU and cisplatin in glioblastoma cells” (Bioorg Med Chem Lett, 2005)
